Drawing on patent publication US8436014B2, “Solid forms of N-(4-(7-azabicyclo[2.2.1]heptan-7-yl)-2-(trifluorormethyl)phenyl)-4-oxo-5-(trifluoromethyl)-1,4-dihyroquinoline-3-carboxamide” (Vertex Pharmaceutical Incorporated, priority 2008, dated 2013), this text covers EC50 for one compound.

In the experiment the target is T1, ΔF508-CFTR (Homo sapiens, UniProt P13569, DEL508-508).
T1 construct: expressed in transfected cells
The experiment can be described thus: Membrane potential optical assay for ΔF508-CFTR potentiation (FLIPR III, voltage sensing dyes). The format is cell-based. Particulars: assay not named in the result sentence. From the text:
Membrane Potential Optical Methods for Assaying ΔF508-CFTR Modulation Properties of Compounds
The assay utilizes fluorescent voltage sensing dyes to measure changes in membrane potential using a fluorescent plate reader (e.g., FLIPR III, Molecular Devices, Inc.) as a readout for increase in functional ΔF508-CFTR in NIH 3T3 cells. The driving force for the response is the creation of a chloride ion gradient in conjunction with channel activation by a single liquid addition step after the cells have previously been treated with compounds and subsequently loaded with a voltage sensing dye.
To identify potentiators of ΔF508-CFTR, a double-addition HTS assay format was developed. This HTS assay utilizes fluorescent voltage sensing dyes to measure changes in membrane potential on the FLIPR III as a measurement for increase in gating (conductance) of ΔF508 CFTR in temperature-corrected ΔF508 CFTR NIH 3T3 cells. The driving force for the response is a Cl− ion gradient in conjunction with channel activation with forskolin in a single liquid addition step using a fluoresecent plate reader such as FLIPR III after the cells have previously been treated with potentiator compounds (or DMSO vehicle control) and subsequently loaded with a redistribution dye.
Solutions • Bath Solution #1: (in mM) NaCl 160, KCl 4.5, CaCl2 2, MgCl2 1, HEPES 10, pH 7.4 with NaOH. […]

T1 sequence (P13569 with tags, fused parts or gaps DEL508-508): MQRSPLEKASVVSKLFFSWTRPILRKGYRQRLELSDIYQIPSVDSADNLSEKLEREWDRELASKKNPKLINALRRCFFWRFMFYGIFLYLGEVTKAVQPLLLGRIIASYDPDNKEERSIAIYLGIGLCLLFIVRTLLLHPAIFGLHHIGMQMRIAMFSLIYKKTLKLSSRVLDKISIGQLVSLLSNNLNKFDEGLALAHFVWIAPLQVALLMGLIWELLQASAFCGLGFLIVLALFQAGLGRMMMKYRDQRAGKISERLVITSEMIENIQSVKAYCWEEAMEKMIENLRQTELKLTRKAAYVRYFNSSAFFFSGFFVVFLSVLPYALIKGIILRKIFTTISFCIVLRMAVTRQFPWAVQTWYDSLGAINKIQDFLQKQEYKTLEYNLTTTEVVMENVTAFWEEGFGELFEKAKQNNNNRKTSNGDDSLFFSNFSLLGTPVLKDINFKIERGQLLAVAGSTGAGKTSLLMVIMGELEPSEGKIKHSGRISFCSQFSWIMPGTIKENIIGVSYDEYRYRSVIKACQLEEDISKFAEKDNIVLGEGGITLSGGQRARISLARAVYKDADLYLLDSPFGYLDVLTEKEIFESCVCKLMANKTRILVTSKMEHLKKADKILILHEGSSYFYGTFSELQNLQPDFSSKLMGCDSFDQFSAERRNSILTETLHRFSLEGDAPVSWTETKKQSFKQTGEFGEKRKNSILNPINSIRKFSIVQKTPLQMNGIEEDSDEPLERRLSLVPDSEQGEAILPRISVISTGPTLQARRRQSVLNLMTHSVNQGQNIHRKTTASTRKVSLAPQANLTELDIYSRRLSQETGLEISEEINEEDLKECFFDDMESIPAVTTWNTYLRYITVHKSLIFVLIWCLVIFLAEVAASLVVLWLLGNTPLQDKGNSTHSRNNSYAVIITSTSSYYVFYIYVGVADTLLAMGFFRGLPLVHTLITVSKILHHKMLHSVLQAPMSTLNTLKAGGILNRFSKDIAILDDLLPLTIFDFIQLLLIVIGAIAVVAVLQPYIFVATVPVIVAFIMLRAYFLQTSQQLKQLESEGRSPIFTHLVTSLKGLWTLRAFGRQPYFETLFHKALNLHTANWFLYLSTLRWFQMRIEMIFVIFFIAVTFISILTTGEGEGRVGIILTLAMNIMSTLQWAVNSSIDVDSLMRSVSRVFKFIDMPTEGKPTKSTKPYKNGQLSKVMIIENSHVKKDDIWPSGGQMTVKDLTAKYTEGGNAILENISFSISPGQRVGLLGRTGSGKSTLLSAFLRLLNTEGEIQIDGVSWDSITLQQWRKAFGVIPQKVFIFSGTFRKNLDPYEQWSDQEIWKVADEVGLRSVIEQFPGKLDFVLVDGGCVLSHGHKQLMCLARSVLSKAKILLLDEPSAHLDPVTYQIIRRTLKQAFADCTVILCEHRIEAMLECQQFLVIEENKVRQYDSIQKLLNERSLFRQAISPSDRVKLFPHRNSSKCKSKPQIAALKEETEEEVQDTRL

For `O=C(Nc1ccc(N2C3CCC2CC3)cc1C(F)(F)F)c1c[nH]c2cccc(C(F)(F)F)c2c1=O` [Compound 1 Form A, N-(4-(7-azabicyclo[2.2.1]heptan-7-yl)-2-(trifluoromethyl)phenyl)-4-oxo-5-(trifluoromethyl)-1,4-dihydroquinoline-3-carboxamide], the EC50 is below 2 µM.
